The source of these data is patent US10174005B2, “Fused pyrimidines as inhibitors of p97 complex” (Cleave Biosciences, Inc., priority 2014, dated 2019).

This data set has as its system Caco-2 cells.

SMILES strings stand for the structures.

Regarding `CC(C)NCC(O)COc1cccc2ccccc12` (centres unmarked) [Propranolol], the “Peff A B, Range” value (pH 7.4 Caco-2, A to B) is 18.50-36.80 × E-6 cm/sec. The “Peff B A, Range” value (pH 7.4 Caco-2, B to A) is recorded as 16.30-31.40 × E-6 cm/sec.
